Key:
CDK2/Cyclin E1 = CDK2/Cyclin E1 (Homo sapiens, UniProt P24941); experiment: CDK2/Cyclin E1 Biochemical Assay (TR-FRET), 0.060 mM ATP; settings: 0.15 μM Rb (Ser780)-biotin substrate, pH7.0, 60 min preincubation, 120 min reaction, room temperature
Procedure, shortened: (§1)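 Percent inhibition was derived from the 665 nm/620 nm TR-FRET ratio after a 120-minute room-temperature reaction on 0.15 μM Rb (Ser780)-biotin, preceded by 60-minute enzyme–compound preincubation. IC50 came from four-parameter logistic fitting.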

CDK1/Cyclin B1 = CDK1/Cyclin B1 (Homo sapiens, UniProt P06493); experiment: CDK1/Cyclin B1 Biochemical Assay (TR-FRET), 0.015 mM ATP; settings: 0.15 μM Rb (Ser780)-biotin substrate, pH7.0, 60 min preincubation, 120 min reaction, room temperature
CDK1/Cyclin B1, sequence (P06493 whole entry): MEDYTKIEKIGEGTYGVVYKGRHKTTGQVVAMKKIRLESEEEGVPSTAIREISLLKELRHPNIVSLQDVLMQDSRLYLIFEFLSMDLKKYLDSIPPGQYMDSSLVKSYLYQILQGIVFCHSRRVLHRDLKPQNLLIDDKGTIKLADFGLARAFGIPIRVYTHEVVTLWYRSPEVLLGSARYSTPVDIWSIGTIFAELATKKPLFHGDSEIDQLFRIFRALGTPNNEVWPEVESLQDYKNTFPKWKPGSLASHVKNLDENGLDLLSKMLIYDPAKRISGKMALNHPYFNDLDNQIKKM
CDK1/Cyclin B1, sequence (P14635 whole entry partner): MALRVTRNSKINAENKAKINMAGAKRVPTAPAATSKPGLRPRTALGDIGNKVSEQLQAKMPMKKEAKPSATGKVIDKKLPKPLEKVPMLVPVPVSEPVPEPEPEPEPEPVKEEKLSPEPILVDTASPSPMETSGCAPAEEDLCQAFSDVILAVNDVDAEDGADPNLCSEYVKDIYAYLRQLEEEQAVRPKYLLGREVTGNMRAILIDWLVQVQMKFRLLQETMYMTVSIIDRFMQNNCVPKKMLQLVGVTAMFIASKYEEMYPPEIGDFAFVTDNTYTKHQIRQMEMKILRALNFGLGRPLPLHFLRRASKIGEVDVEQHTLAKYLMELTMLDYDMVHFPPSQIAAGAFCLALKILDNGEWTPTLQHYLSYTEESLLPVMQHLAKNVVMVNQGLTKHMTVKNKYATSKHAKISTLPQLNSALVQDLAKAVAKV
Procedure, shortened: as §1

Row | SMILES | IC50 (CDK2/Cyclin E1) [nM] | IC50 (CDK1/Cyclin B1) [nM]
1 | CC(C)NC(=O)O[C@H]1CC[C@@H](c2cc(Nc3ccc4c(c3)CS(=O)(=O)N4CCO)n[nH]2)C1 (single isomer, unassigned) [Example 219b, cis-3-(3-((1-(2-hydroxyethyl)-2,2-dioxido-1,3-dihydrobenzo[c]isothiazol-5-yl)amino)-1H-pyrazol-5-yl)cyclopentyl isopropylcarbamate] | 3.6 | 28
2 | CC(=O)N1CCC(N2Cc3c(ccc(Nc4cc([C@@H]5CC[C@H](OC(=O)NC(C)C)C5)[nH]n4)c3F)S2(=O)=O)CC1 (relative stereo) [Example 78, cis-3-(3-((2-(1-acetylpiperidin-4-yl)-4-fluoro-1,1-dioxido-2,3-dihydrobenzo[d]isothiazol-5-yl)amino)-1H-pyrazol-5-yl)cyclopentyl isopropylcarbamate] | 8.9 | 556
3 | CC[C@H](C)NC(=O)O[C@H]1CC[C@@H](c2cc(Nc3ccc4c(c3F)CNS4(=O)=O)n[nH]2)C1 (single isomer, unassigned) [Example 139a] | 1.2 | 223
4 | CN1Cc2c(ccc(Nc3cc([C@@H]4CC[C@H](OC(=O)NC5COC5)C4)[nH]n3)c2F)S1(=O)=O (relative stereo) [Example 336, cis-3-(3-((4-fluoro-2-methyl-1,1-dioxido-2,3-dihydrobenzo[d]isothiazol-5-yl)amino)-1H-pyrazol-5-yl)cyclopentyl oxetan-3-ylcarbamate] | 97 | 1470
5 | O=C(NC1CCC1)O[C@H]1CC[C@@H](c2cc(Nc3ccc4c(c3F)CS(=O)(=O)N4)n[nH]2)C1 (single isomer, unassigned) [Example 399b] | 3.8 | 90
6 | CC(C)NC(=O)O[C@H]1CC[C@@H](c2cc(Nc3ccc4c(c3F)CN(CC(F)(F)F)S4(=O)=O)n[nH]2)C1 (relative stereo) [Example 66, cis-3-(3-((4-fluoro-1,1-dioxido-2-(2,2,2-trifluoroethyl)-2,3-dihydrobenzo[d]isothiazol-5-yl)amino)-1H-pyrazol-5-yl)cyclopentyl isopropylcarbamate] | 7.3 | 412
7 | C[C@H]1[C@H](O)CN1C(=O)O[C@H]1CC[C@@H](c2cc(Nc3ccc4c(c3F)CS(=O)(=O)N4C)n[nH]2)C1 (relative stereo) [Example 355, cis-3-(3-((4-fluoro-1-methyl-2,2-dioxido-1,3-dihydrobenzo[c]isothiazol-5-yl)amino)-1H-pyrazol-5-yl)cyclopentyl(2S,3R)-3-hydroxy-2-methylazetidine-1-carboxylate] | 19 | 361
8 | C[C@@H](CO)NC(=O)O[C@H]1CC[C@@H](c2cc(Nc3ccc4c(c3F)CN(C3CC3)S4(=O)=O)n[nH]2)C1 (relative stereo) [Example 120, cis-3-(3-((2-cyclopropyl-4-fluoro-1,1-dioxido-2,3-dihydrobenzo[d]isothiazol-5-yl)amino)-1H-pyrazol-5-yl)cyclopentyl((S)-1-hydroxypropan-2-yl)carbamate] | 32 | 773
9 | CCCNC(=O)O[C@@H]1CC[C@H](c2cc(Nc3ccc4c(c3F)CS(=O)(=O)N4)n[nH]2)C1 (single isomer, unassigned) [Example 387a] | 3 | 137
10 | [2H]C([2H])([2H])N1Cc2c(ccc(Nc3cc([C@H]4CC[C@@H](OC(=O)NC5(C)CC5)C4)[nH]n3)c2F)S1(=O)=O (racemic) [Example 132, cis-3-(3-((4-fluoro-2-(methyl-d3)-1,1-dioxido-2,3-dihydrobenzo[d]isothiazol-5-yl)amino)-1H-pyrazol-5-yl)cyclopentyl(1-methylcyclopropyl)carbamate] | 1.6 | 104
11 | CC1(NC(=O)O[C@H]2CC[C@@H](c3cc(Nc4ccc5c(c4F)CNS5(=O)=O)n[nH]3)C2)CC1 (single isomer, unassigned) [Example 140a, cis-3-(3-((4-fluoro-1,1-dioxido-2,3-dihydrobenzo[d]isothiazol-5-yl)amino)-1H-pyrazol-5-yl)cyclopentyl(1-methylcyclopropyl)carbamate] | 1.1 | 97
12 | CN1Cc2c(ccc(Nc3cc([C@@H]4CC[C@H](OC(=O)NC5(C)COC5)C4)[nH]n3)c2F)S1(=O)=O (single isomer, unassigned) [Example 352b, cis-3-(3-((4-fluoro-2-methyl-1,1-dioxido-2,3-dihydrobenzo[d]isothiazol-5-yl)amino)-1H-pyrazol-5-yl)cyclopentyl(3-methyloxetan-3-yl)carbamate] | 7 | 651
13 | CC1(NC(=O)O[C@H]2CC[C@@H](c3cc(Nc4ccc5c(c4F)CS(=O)(=O)N5C4COC4)n[nH]3)C2)CC1 (relative stereo) [Example 262, cis-3-(3-((4-fluoro-1-(oxetan-3-yl)-2,2-dioxido-1,3-dihydrobenzo[c]isothiazol-5-yl)amino)-1H-pyrazol-5-yl)cyclopentyl(1-methylcyclopropyl)carbamate] | 1.3 | 33
14 | CC(C)NC(=O)O[C@H]1CC[C@@H](c2cc(Nc3ccc4c(c3F)C(=O)NS4(=O)=O)n[nH]2)C1 (relative stereo) [Example 59, cis-3-(3-((4-fluoro-1,1-dioxido-3-oxo-2,3-dihydrobenzo[d]isothiazol-5-yl)amino)-1H-pyrazol-5-yl)cyclopentyl isopropylcarbamate] | 5.8 | 296
15 | CN1c2ccc(Nc3cc([C@@H]4CC[C@H](OC(=O)N[C@H]5CC[C@@H](O)CC5)C4)[nH]n3)c(F)c2CS1(=O)=O (relative stereo) [Example 347, cis-3-(3-((4-fluoro-1-methyl-2,2-dioxido-1,3-dihydrobenzo[c]isothiazol-5-yl)amino)-1H-pyrazol-5-yl)cyclopentyl((1s,4s)-4-hydroxycyclohexyl)carbamate] | 9.3 | 411
16 | CN1c2ccc(Nc3cc([C@@H]4CC[C@H](OC(=O)NC5CCC56CC6)C4)[nH]n3)cc2CS1(=O)=O (relative stereo) [Example 196, cis-3-(3-((1-methyl-2,2-dioxido-1,3-dihydrobenzo[c]isothiazol-5-yl)amino)-1H-pyrazol-5-yl)cyclopentyl spiro[2.3]hexan-4-ylcarbamate] | 4.3 | 47
17 | CC[C@H](C)NC(=O)O[C@H]1CC[C@@H](c2cc(Nc3ccc4c(c3)CS(=O)(=O)N4C)n[nH]2)C1 (relative stereo) [Example 222, cis-3-(3-((1-methyl-2,2-dioxido-1,3-dihydrobenzo[c]isothiazol-5-yl)amino)-1H-pyrazol-5-yl)cyclopentyl((S)-sec-butyl)carbamate] | 5 | 48
18 | COCC1(NC(=O)O[C@H]2CC[C@@H](c3cc(Nc4ccc5c(c4F)CN(C)S5(=O)=O)n[nH]3)C2)CC1 (relative stereo) [Example 344, cis-3-(3-((4-fluoro-2-methyl-1,1-dioxido-2,3-dihydrobenzo[d]isothiazol-5-yl)amino)-1H-pyrazol-5-yl)cyclopentyl(1-(methoxymethyl)cyclopropyl)carbamate] | 6.4 | 626
19 | O=C(NC1CCCC1)O[C@H]1CC[C@@H](c2cc(Nc3ccc4c(c3)CS(=O)(=O)N4)n[nH]2)C1 (single isomer, unassigned) [Example 381a, cis-3-(3-((2,2-dioxido-1,3-dihydrobenzo[c]isothiazol-5-yl)amino)-1H-pyrazol-5-yl)cyclopentyl cyclopentylcarbamate] | 1.2 | 45
20 | CN1Cc2c(ccc(Nc3cc([C@@H]4CC[C@H](OC(=O)NC5(C)COC5)C4)[nH]n3)c2F)S1(=O)=O (single isomer, unassigned) [Example 352a, cis-3-(3-((4-fluoro-2-methyl-1,1-dioxido-2,3-dihydrobenzo[d]isothiazol-5-yl)amino)-1H-pyrazol-5-yl)cyclopentyl(3-methyloxetan-3-yl)carbamate] | 14 | 365
21 | CC(C)NC(=O)O[C@H]1CC[C@@H](c2cc(Nc3ccc4c(c3C(F)(F)F)CNS4(=O)=O)n[nH]2)C1 (relative stereo) [Example 22, cis-3-(3-((1,1-dioxido-4-(trifluoromethyl)-2,3-dihydrobenzo[d]isothiazol-5-yl)amino)-1H-pyrazol-5-yl)cyclopentyl isopropylcarbamate] | 202 | > 10000
22 | CC[C@H](C)NC(=O)O[C@H]1CC[C@@H](c2cc(Nc3ccc4c(c3F)CN(C)S4(=O)=O)n[nH]2)C1 (single isomer, unassigned) [Example 123a] | 5.2 | 613
23 | COCC(C)(C)NC(=O)O[C@H]1CC[C@@H](c2cc(Nc3ccc4c(c3F)CS(=O)(=O)N4C)n[nH]2)C1 (relative stereo) [Example 377, cis-3-(3-((4-fluoro-1-methyl-2,2-dioxido-1,3-dihydrobenzo[c]isothiazol-5-yl)amino)-1H-pyrazol-5-yl)cyclopentyl(1-methoxy-2-methylpropan-2-yl)carbamate] | 1.1 | 45
24 | CC[C@H](C)NC(=O)O[C@H]1CC[C@@H](c2cc(Nc3ccc4c(c3F)CS(=O)(=O)N4CC(F)(F)F)n[nH]2)C1 (single isomer, unassigned) [Example 265b] | 2.4 | 26
25 | CC(C)NC(=O)O[C@H]1CC[C@@H](c2cc(Nc3ccc4c(c3)C(C)S(=O)(=O)N4)n[nH]2)C1 (single isomer, unassigned) [Example 384b, cis-3-(3-((3-methyl-2,2-dioxido-1,3-dihydrobenzo[c]isothiazol-5-yl)amino)-1H-pyrazol-5-yl)cyclopentyl isopropylcarbamate] | 3.9 | 191

— patent US20260297080A1, “BICYCLIC COMPOUNDS AS CDK INHIBITORS” (BeOne Medicines I GmbH, priority 2022, published 2026)
